± gives the expanded uncertainty stated by the source.
Columns and labels:
[1] = xn = mol fraction of the nth substance listed; settings: 101.3 kPa, Liquid, x2 = 0
[2] = molar heat capacity at constant pressure; xn = mol fraction of the nth substance listed; settings: 101.3 kPa, Liquid, Small sample (50 mg) DSC, x2 = 0
[3] = 101.33 kPa, Liquid
[4] = molar heat capacity at constant pressure; settings: 298.15 K; 101.33 kPa; Liquid; Small sample (50 mg) DSC

O [water] + OCCCCO
Settings	mass density, [1] [kg/m3]	molar heat capacity at constant pressure, [2] [J/K/mol]	viscosity, [1] [mPa·s]
293.15 K	–	75.2 ± 1.5	1.002 ± 0.099
303.15 K	–	75.3 ± 1.5	0.797 ± 0.081
313.15 K	–	75.2 ± 1.5	0.653 ± 0.069
323.15 K	988.05 ± 0.29	75.2 ± 1.5	0.547 ± 0.06
333.15 K	983.21 ± 0.3	75.2 ± 1.5	0.467 ± 0.053
343.15 K	977.79 ± 0.32	75.3 ± 1.5	0.405 ± 0.047
353.15 K	971.83 ± 0.34	75.4 ± 1.5	0.356 ± 0.043

OCCCCO [1,4-butanediol]
[3]
Settings	mass density [kg/m3]	viscosity [mPa·s]
293.15 K	1015.76 ± 0.35	90.33 ± 7.4
298.15 K	1012.68 ± 0.34	71.15 ± 3.5
303.15 K	1009.54 ± 0.33	55.98 ± 0.93
308.15 K	1006.43 ± 0.32	44.44 ± 1.5
313.15 K	1003.37 ± 0.31	35.74 ± 1.2
318.15 K	1000.45 ± 0.3	29.11 ± 0.97
323.15 K	997.14 ± 0.31	23.63 ± 0.8
328.15 K	994.02 ± 0.32	19.68 ± 0.68
333.15 K	990.93 ± 0.33	16.17 ± 0.57
338.15 K	987.93 ± 0.33	13.65 ± 0.49
343.15 K	984.81 ± 0.34	11.45 ± 0.42
348.15 K	981.7 ± 0.35	9.778 ± 0.37
353.15 K	978.59 ± 0.36	8.28 ± 0.32
363.15 K	972.71 ± 0.38	6.213 ± 0.26

Settings	molar heat capacity at constant pressure [J/K/mol]
[4]	200.9 ± 4

— the NIST ThermoML archive (doi:10.1021/je0341918)
